Data reported in ChEMBL document CHEMBL1201862, “PubChem BioAssay data set” (2004).
The source made the active and inactive calls.

Experiments:
[1] = Jurkat T cell cytotoxicity, dose response, cytotoxicity control for P. falciparum gametocyte viability project, luminescence (AID 1117277); type: functional, cell-based;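 note: potency reflects loss of cellular ATP meaning fewer viable cells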
[2] = P. falciparum late gametocyte killing, dose response, luminescence (AID 1117278); type: functional, cell-based;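 note: gametocytes exposed to compound for 24 hours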
[3] = target: T1, Mannose-6-phosphate isomerase (Homo sapiens, UniProt P34949); assay: human PMI inhibitors, high substrate, primary screen, biochemical, fluorescence intensity, high mannose 6-phosphate (AID 1220)
T1 sequence (P34949 whole entry): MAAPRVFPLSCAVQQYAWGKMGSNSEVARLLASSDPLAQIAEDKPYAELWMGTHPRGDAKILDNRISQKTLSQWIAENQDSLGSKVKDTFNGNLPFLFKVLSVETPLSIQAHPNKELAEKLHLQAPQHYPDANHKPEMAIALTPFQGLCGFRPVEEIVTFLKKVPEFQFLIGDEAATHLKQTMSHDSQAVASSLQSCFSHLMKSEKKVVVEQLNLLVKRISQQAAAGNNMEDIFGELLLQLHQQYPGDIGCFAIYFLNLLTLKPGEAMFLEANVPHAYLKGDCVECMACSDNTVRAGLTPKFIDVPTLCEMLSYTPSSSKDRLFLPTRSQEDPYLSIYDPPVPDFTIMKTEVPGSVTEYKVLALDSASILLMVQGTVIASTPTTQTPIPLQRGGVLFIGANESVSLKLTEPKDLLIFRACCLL

Kallikrein-7 = Kallikrein-7 (Homo sapiens, UniProt P49862); assay: Fluorescence Intensity-based biochemical primary high throughput dose response assay to identify activators of kallikrein-7 (K7) zymogen.
Prothrombin = Prothrombin (Homo sapiens, UniProt P00734); assay: Thrombin 1536 HTS Dose Response Confirmation. [Related pubchem assays: 1046 (Thrombin 1536 HTS; hits were confirmed in this assay)]; type: functional
[4] = target: T2, Long-chain-fatty-acid--AMP ligase FadD28 (Mycobacterium tuberculosis, UniProt P9WQ59); assay: Fluorescence polarization aasay to screen for inhibitors that compete for the binding of FadD28 to a bisubstrate Measured in Biochemical System Using Plate Reader - 2147-01_Inhibitor_Dose_CherryPick_Activity.; type: functional, Mycobacterium tuberculosis H37Rv
T2 sequence (P9WQ59 whole entry): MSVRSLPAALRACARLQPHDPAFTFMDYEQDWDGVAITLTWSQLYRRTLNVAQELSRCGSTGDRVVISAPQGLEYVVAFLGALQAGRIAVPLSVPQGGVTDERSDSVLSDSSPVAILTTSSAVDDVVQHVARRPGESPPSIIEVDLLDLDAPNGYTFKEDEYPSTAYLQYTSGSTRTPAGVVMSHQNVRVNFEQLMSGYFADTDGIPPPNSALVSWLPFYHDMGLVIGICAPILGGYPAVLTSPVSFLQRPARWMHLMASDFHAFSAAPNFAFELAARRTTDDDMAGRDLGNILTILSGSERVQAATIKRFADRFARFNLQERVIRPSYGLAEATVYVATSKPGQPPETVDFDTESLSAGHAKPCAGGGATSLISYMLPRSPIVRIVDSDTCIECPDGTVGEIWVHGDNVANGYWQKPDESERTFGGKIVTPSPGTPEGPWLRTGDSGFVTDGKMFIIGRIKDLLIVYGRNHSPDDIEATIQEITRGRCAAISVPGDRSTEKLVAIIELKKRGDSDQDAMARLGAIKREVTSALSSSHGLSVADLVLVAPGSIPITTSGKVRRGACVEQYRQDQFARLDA

[5] = target: T3, Carboxy-terminal domain RNA polymerase II polypeptide A small phosphatase 1 (Homo sapiens, UniProt Q9GZU7); assay: inhibitors of CTDSP1, concentration-response testing, biochemical assay, absorbance-based, actives from ultra-high-throughput screening (AID 540297); type: functional
T3 sequence (Q9GZU7 whole entry): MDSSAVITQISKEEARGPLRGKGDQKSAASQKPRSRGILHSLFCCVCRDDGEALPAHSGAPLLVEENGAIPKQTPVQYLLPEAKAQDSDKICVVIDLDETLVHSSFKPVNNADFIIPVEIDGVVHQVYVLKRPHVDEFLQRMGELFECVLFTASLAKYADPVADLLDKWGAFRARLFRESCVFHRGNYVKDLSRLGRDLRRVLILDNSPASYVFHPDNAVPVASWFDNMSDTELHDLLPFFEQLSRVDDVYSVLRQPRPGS

Protein Tat = target: T4, Protein Tat (Human immunodeficiency virus type 1 group M subtype B (isolate HXB2)(HIV-1), UniProt P04608); type: functional;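 note: tat binding to TAR RNA read out by fluorescence polarization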
T4 sequence (P04608 whole entry): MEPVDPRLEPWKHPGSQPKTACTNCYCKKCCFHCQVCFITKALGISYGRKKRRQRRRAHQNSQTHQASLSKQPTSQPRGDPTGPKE

H9c2 = assay: cells; type: functional, cell-based; conditions: Rattus norvegicus, H9c2, Myocardium
Beta-galactosidase = Beta-galactosidase (Escherichia coli, UniProt Q8VNN2); assay: Dose response counterscreen for EBI2 assay utilizing the enzyme, b-galactosidase.; type: functional
[6] = inhibitors of clade B AD8 Env fusion, dose response, cell-based, cherry-pick (AID 652062); type: functional;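 note: luciferase signal from cell-cell fusion driven by HIV-1 clade B AD8 Env; potency is for inhibitors of fusion seen as a drop in luminescence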
[7] = off-target signal loss in HeLa-CEM21 co-culture – HeLa F-luc CTL cells, cherry-picked, counter-screen for HIV-1 Env fusion inhibitor project, dose response (AID 652040); type: functional, cell-based;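 note: potency for signal decrease marking cytotoxic or nonspecific inhibition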
[8] = inhibitors of HIV Env-driven cell fusion, dose response, cherry-pick (AID 652057); type: functional, cell-based
[9] = CEM21 lymphoblast cell cytotoxicity, dose response, cytotoxicity control for viral fusion inhibitor project, CellTiter-Glo luminescence, cherry-picked (AID 652042); type: functional, cell-based;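 note: potency for signal decrease meaning cytotoxicity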
[10] = ZM109 Env clade C HIV-1 fusion inhibitors, dose response, HeLa effector, CEM target cells, luciferase, cherry-pick (AID 652058); type: functional, cell-based
[11] = Luminescence Cell-Based Dose Response HTS to Identify Activators of Luciferase Translation or Activity in H4 […] Cells. [Related pubchem assays: 1829 (Project Summary), 1814 (Primary HTS)]; type: functional
H4 = assay: Luminescence Cell-Based Dose Response HTS to Identify Activators of 5'UTR Stem-Loop Driven Prion Protein mRNA Translation in H4 Neuroglioblastoma Cells. [Related pubchem assays: 1829 (Project Summary), 1814 (Primary HTS)]; type: functional; conditions: Homo sapiens
[12] = Luminescence Cell-Based Dose Retest to Confirm Inhibitors of Cancer Stem Cells. [Related pubchem assays (depositor defined):AID2717, AID2721]; type: functional; conditions: Homo sapiens
[13] = Luminescence Cell-Based Dose Confirmation HTS to Identify Activators of 5'UTR Stem-Loop Driven Alpha-Synuclein mRNA Translation in H4 Neuroglioblastoma Cells. [Related pubchem assays: 1829 (Project Summary), 1814 (Primary HTS)]; type: functional
Vero [14] = assay: host cell cytotoxicity of antiviral hits, dose response, cytotoxicity control for West Nile virus antiviral project, secondary assay (AID 1650); type: functional; conditions: Chlorocebus sabaeus
Vero [15] = assay: cells; type: functional; conditions: Chlorocebus sabaeus
[16] = target: Heat shock protein HSP 90-alpha (Homo sapiens, UniProt P07900); type: functional, organism-based
Cytochrome P450 2C19 = Cytochrome P450 2C19 (Homo sapiens, UniProt P33261); assay: Cytochrome panel assay with activity outcomes. Panel member name: p450-cyp2c19 Compounds with AC50 equal or less than 10 uM are considered active; type: functional; conditions: read-out: AC50
Aminopeptidase N = target: T5, Aminopeptidase N (Plasmodium falciparum FcB1/Columbia, UniProt O96935); assay: P. falciparum M1AAP inhibitors, biochemical, fluorogenic H-Leu-NHMec substrate, 1536-well (AID 1445); design: species or system Plasmodium falciparum 3D7, 3D7
T5 sequence (O96935 whole entry): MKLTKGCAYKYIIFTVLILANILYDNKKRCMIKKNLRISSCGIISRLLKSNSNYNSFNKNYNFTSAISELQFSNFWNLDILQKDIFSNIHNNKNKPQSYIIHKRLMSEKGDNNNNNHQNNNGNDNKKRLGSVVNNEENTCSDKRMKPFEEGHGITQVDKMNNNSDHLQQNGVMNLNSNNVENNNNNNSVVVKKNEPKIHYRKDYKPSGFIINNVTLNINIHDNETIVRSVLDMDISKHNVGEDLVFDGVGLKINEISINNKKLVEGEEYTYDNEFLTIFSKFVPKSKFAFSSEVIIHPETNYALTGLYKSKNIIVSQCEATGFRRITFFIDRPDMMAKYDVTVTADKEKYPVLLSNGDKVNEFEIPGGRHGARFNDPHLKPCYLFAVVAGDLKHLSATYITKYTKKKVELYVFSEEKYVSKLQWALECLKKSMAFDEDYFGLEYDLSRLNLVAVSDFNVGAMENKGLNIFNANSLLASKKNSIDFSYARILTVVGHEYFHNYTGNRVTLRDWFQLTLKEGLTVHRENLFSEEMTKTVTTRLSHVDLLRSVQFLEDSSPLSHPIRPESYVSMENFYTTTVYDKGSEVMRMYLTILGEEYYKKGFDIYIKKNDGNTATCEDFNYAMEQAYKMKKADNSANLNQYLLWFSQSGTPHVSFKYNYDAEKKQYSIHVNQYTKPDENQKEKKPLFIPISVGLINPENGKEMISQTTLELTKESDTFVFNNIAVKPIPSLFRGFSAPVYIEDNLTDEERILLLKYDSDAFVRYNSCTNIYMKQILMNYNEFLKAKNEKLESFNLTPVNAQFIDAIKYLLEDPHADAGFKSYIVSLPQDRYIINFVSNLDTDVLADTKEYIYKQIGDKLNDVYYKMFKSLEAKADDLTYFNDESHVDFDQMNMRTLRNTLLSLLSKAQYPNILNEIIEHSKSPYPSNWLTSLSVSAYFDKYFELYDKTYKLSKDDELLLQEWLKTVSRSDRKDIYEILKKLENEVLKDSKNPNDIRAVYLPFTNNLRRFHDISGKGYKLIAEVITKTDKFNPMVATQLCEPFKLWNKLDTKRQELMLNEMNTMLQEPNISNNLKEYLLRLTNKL

[17] = NIH:OVCAR-3 ovarian cancer cell cytotoxicity, dose response, PAX8 inhibitor project, plate reader, dry powder samples (AID 743044); type: functional, cell-based
[18] = IGROV1 ovarian cancer cell cytotoxicity, dose response, PAX8 inhibitor project, plate reader, dry powder samples (AID 743043); type: functional, cell-based; conditions: IGROV-1
Paired box protein Pax-8 = Paired box protein Pax-8 (Homo sapiens, UniProt Q06710); assay: inhibitors of PAX8-driven TPO luciferase reporter, dose response, RMG-I cells, cherry-pick (AID 687027); type: functional, cell-based;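 note: luciferase reporter driven by Pax8 target thyroperoxidase promoter measured by SteadyGlo luminescence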
[19] = cytotoxicity in OVCAR8 ovarian cancer cells, dose response, PAX8 project, cell-based, plate reader, dry powder samples (AID 743197); type: functional; conditions: OVCAR-8

Chain of Kallikrein-7 (P49862 whole entry): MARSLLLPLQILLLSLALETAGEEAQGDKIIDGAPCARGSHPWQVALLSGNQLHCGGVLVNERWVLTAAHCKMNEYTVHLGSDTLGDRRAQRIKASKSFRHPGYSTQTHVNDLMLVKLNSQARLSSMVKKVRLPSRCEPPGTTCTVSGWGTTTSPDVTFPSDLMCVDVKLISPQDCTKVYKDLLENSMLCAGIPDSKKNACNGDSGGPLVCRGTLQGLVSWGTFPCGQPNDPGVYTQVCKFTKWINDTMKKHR
Chain of Beta-galactosidase (Q8VNN2 whole entry, the tested form may be a part): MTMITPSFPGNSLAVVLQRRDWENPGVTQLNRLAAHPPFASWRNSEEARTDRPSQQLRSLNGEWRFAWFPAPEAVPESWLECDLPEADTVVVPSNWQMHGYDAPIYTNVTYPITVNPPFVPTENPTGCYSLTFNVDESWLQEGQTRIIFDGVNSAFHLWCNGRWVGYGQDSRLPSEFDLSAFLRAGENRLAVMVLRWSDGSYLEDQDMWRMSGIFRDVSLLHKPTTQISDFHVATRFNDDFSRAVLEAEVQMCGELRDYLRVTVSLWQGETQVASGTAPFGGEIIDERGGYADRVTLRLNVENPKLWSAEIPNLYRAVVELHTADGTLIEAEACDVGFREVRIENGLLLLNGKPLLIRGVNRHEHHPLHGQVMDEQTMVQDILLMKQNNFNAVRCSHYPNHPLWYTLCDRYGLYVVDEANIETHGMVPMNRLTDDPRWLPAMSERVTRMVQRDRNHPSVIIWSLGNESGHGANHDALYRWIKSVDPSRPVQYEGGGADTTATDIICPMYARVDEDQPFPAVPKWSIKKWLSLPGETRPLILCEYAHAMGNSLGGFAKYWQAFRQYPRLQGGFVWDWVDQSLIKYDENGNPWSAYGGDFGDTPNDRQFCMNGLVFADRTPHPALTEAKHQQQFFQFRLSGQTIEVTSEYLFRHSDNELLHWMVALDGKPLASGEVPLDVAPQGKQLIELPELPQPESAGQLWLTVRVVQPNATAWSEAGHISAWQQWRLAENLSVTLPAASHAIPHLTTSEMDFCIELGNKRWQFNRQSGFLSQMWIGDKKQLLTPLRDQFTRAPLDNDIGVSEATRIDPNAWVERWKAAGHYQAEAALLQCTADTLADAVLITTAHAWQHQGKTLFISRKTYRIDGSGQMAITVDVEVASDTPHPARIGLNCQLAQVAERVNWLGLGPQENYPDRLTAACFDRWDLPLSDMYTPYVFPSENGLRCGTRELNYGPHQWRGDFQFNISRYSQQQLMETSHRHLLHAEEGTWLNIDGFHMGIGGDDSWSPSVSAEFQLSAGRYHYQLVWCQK
Chain of Paired box protein Pax-8 (Q06710 whole entry): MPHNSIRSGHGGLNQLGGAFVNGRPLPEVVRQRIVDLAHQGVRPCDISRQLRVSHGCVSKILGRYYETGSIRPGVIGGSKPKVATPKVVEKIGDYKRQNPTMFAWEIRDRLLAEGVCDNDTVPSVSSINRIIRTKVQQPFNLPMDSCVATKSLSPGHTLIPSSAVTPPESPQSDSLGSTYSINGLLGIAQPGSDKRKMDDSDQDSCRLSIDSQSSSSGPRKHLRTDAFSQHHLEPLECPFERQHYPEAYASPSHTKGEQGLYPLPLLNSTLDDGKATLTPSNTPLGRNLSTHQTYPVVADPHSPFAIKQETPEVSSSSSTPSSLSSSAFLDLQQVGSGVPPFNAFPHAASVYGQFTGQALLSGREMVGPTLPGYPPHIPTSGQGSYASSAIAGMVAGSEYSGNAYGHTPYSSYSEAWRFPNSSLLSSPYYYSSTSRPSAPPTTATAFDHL
Chain of Cytochrome P450 2C19 (P33261 whole entry): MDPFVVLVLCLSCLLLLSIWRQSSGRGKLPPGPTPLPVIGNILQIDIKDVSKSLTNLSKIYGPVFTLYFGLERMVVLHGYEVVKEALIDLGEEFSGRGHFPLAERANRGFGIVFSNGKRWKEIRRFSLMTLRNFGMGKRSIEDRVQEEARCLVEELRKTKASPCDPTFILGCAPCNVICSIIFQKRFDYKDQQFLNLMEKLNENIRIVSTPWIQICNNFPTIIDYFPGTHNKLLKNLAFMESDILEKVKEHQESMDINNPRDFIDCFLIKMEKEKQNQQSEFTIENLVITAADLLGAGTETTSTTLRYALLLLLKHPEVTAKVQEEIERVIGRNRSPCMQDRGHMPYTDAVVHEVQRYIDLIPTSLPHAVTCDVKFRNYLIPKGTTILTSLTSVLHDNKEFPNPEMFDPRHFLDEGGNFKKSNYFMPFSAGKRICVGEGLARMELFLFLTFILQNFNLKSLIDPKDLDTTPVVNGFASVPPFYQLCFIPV

## CC(C)C1Oc2ccccc2N(CC(=O)N(Cc2ccccn2)C2CC2)C1=O (stereo not drawn)
[1]
  IC50: > 83.3 µM (inactive)
[2]
  IC50: > 109 µM (inactive)

## CN(C)c1ccc(C(=S)N2CCOCC2)cc1Br
[3]
  IC50: > 50 µM (not active)

## CCN1c2ccccc2-c2nc3ccccc3n2C1c1ccccn1 (stereo not drawn)
Kallikrein-7
  EC50: > 69.5 µM (inactive)

## Nc1nc(-c2cccnc2)nn1C(=O)Cc1ccccc1
Prothrombin
  IC50: 0.0753 µM (active)

## Cc1cccc(NC(=O)CN2C(=O)S/C(=C\c3ccc(O)c([N+](=O)[O-])c3)C2=O)c1
[4]
  AC50: 0.102 µM (active)
[5]
  IC50: 3.43 µM (active)

## COC(=O)CC1=C(C(=O)OC)[C@@H](c2ccccc2[N+](=O)[O-])C(C#N)=C(N)O1
Kallikrein-7
  EC50: 8.2 µM (active)

## CCn1c(SCC(=O)NCc2ccco2)nnc1-c1cccs1
Protein Tat
  IC50: > 100 µM (active)

## Cc1ccc(N2CCN(c3ccc(C)cc3)C2c2ccccn2)cc1
Protein Tat
  IC50: > 100 µM (active)

## O=c1c2ccccc2nc(/C=C/c2ccc(O)cc2)n1-c1ccc(O)cc1
H9c2
  IC50: > 79 µM (inactive)
Kallikrein-7
  EC50: 21.7 µM (inactive)

## COc1ccc(N2CCN(C(=O)c3cc(=O)c4cc(C)cc(C)c4o3)CC2)cc1
Beta-galactosidase
  IC50: > 80 µM (inactive)

## O=C1NCC(COCc2ccco2)O1 (stereo not drawn)
Prothrombin
  IC50: > 50 µM (not active)

## CCN(CC(=O)Nc1c(F)cccc1F)C(=O)/C=C/c1ccc(C)cc1
Beta-galactosidase
  IC50: > 80 µM (inactive)

## O=C(c1ccco1)n1nc(-c2ccco2)nc1SCc1ccccc1
Prothrombin
  IC50: 0.201 µM (active)

## CCOC(=O)C1CCN(S(=O)(=O)c2cccc(-c3cn4cccnc4n3)c2)CC1
Kallikrein-7
  EC50: > 69.5 µM (inactive)

## Cc1oc(-c2cccc(Cl)c2)nc1CN1CCCC(C(=O)NC(C)c2ccc3c(c2)OCCO3)C1 (stereo not drawn)
[6]
  AC50: 4.68 µM (active)
[7]
  AC50: 3.92 µM (active)
[8]
  AC50: 2.58 µM (active)
[9]
  AC50: 54.5 µM (active)
[10]
  AC50: 3.47 µM (active)

## CC1=NN(c2ccccc2)C(=O)/C1=C\C=C\c1ccccc1
[11]
  EC50: 27.3 µM (active)
H4
  EC50: > 120 µM (not active)
[12]
  AC50: 4.82 µM (active)
[13]
  EC50: > 120 µM (not active)
Vero [14]
  CC50: 26.8 µM (active)
Vero [15]
  CC50: 12.1 µM (active)

## NCCCN1CCOCC1
[1]
  IC50: > 83.4 µM (inactive)
[2]
  IC50: > 109 µM (inactive)

## COc1ccc(C(=O)/C=C2\C(=O)Nc3ccc(Br)cc32)cc1
Beta-galactosidase
  IC50: 71.6 µM (inactive)
[16]
  AC50: 1.59 µM (active)
Vero [15]
  CC50: 14.9 µM (active)

## CS(=O)(=O)N(CC(=O)N1CCC(C(N)=O)CC1)C1CCCCC1
[1]
  IC50: > 83.3 µM (inactive)
[2]
  IC50: > 109 µM (inactive)

## CC(=O)/N=C1\C(=O)N(C)c2cccc3c(O)c4ccccc4c1c23
Cytochrome P450 2C19
  AC50: 14.1 µM (inconclusive)
Aminopeptidase N
  IC50: 27.9 µM (active)
Protein Tat
  IC50: > 100 µM (active)

## C[C@H]1CCCCO[C@@H](CN(C)S(=O)(=O)c2ccccc2)[C@@H](C)CN([C@@H](C)CO)C(=O)c2cc(NC(=O)Nc3ccc(C(F)(F)F)cc3)ccc2O1
[17]
  AC50: 19.4 µM (active)
[18]
  AC50: 53.1 µM (active)
Paired box protein Pax-8
  AC50: 6.6 µM (active)
[19]
  AC50: 52.4 µM (active)

## CC(O)C(=O)N/N=C/c1cccc2ccccc12 (stereo not drawn)
Prothrombin
  IC50: 48.8 µM (active)
